Data taken from patent publication US20250270191A1, “QUINOLONE BCL6 BIFUNCTIONAL DEGRADERS” (Treeline Biosciences, Inc., priority 2022, published 2025).

Key:
[1] = Pharmacokinetic assessment in male CD-1 mice (IV and PO); format: in vivo; conditions: mouse, plasma
Protocol: Pharmacokinetics (PK) studies were conducted on male CD-1 mice by two delivery routes: intravenous (IV) injection and oral gavage (PO). Mice for the IV group (n=3) were allowed free access to food and water and mice for the PO group (n=3) were fasted 6-8 hours prior to dosing. The test articles were formulated in solution for the IV route (commonly 5% DMSO/10% Solutol HS15/85% water (pH 5)) and solution or suspension for the PO route (commonly 100% PEG400). On the day of the experiment, test article was administered via vein injection (commonly 1 mg/kg) for IV route or via oral gavage (commonly 10 mg/kg) for PO route, respectively. Blood samples were collected via the saphenous vein using a needle (commonly 20G) at 0.83 to 24 hours post dose. Approximately 30 μL of blood per timepoint was collected into pre-chilled tubes using K2EDTA as the anti-coagulant. After collection of blood samples at each time point, the blood samples were stored on ice. Blood samples were centrifuged within 0.5 hour of collection to separate plasma. Centrifugation was conducted at 2500×g for 15 minutes at 4° C. Plasma samples were immediately acidified (commonly 0.1M sodium citrate (pH=5) buffer). The samples were then submitted to LC-MS/MS for sample analysis. Pharmacokinetics parameters, including clearance (IV), area under the curve (AUC), and oral bioavailability (% F) were calculated by non-compartmental model.

[2] = molecular target: T1, Human BCL6 protein (N-terminal HiBiT tagged BCL6 in HT1080 cells) (Homo sapiens, UniProt P41182+Q96SW2); assay: HiBiT based BCL6 degradation assay; format: cell-based; conditions: HT1080 cells expressing N-terminal HiBiT tagged BCL6; 5 hours incubation; BCL6 degradation normalized with DMSO control
T1 construct: Human BCL6 protein coding open reading frame; expressed in transfected cells; host or cells: HT1080 (ATCC CCL-121), stably transduced with lentivirus pLV-UBC-N-HiBiT-BCL6-PGK-puro
Summary of the method: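 HT1080 cells stably expressing N-terminal HiBiT-BCL6 were treated with compound dilution series for 5 h at 37° C. in RPMI 1640 with 10% FBS. HiBiT lytic luminescence read after 15 min; degradation normalized to DMSO, with curves fitted by four-parameter logistic model.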

clearance ([1]; clearance (IV), commonly 1 mg/kg, non-compartmental model): 10.8 mL/min/kg | bioavailability ([1]; oral bioavailability, PO commonly 10 mg/kg vs IV commonly 1 mg/kg): 67.5% | Cmax ([1]; route not given): 2550 nM | AUC(0-inf) ([1]; route not given, non-compartmental model): 13.5 µM·h | Ymin (5 hr) [2]: +++ (25% < Ymin ≤ 50%)
Compound: CNC(=O)COc1cc2cc(Nc3nc(N4CCN(CC5CCN(c6ccc7c(C8CCC(=O)NC8=O)nn(C)c7c6)CC5)CC4)ncc3Cl)ccc2n(C)c1=O (centres unmarked) [Compound 102, 2-((6-((5-chloro-2-(4-((1-(3-(2,6-dioxopiperidin-3-yl)-1-methyl-1H-indazol-6-yl)piperidin-4-yl)methyl)piperazin-1-yl)pyrimidin-4-yl)amino)-1-methyl-2-oxo-1,2-dihydroquinolin-3-yl)oxy)-N-methylacetamide]
